Laboratory results taken from US5229419A, “Chemotherapeutically active acetogenins” (Purdue Research Foundation, priority 1992, dated 1993).
Values after ≈ are worked out from the molar mass of the structure shown.

Tests used:
LOVO = assay: NCI in vitro cytotoxicity, colon cancer; type: cell-based; settings: Homo sapiens
P388 = assay: NCI in vitro cytotoxicity, leukemia; type: cell-based; settings: Mus musculus
MCF7 = assay: NCI in vitro cytotoxicity, breast cancer; type: cell-based; settings: Homo sapiens
HOP-62 = assay: NCI in vitro cytotoxicity, non-small cell lung cancer; type: cell-based; settings: Homo sapiens
[1] = system: human tumor cell line panel; assay: NCI human tumor cell line panel, overall; type: cell-based; settings: Table 6 summary
SK-MES-1 = assay: NCI in vitro cytotoxicity, non-small cell lung cancer; type: cell-based; settings: Homo sapiens
H23 = assay: as above; type: cell-based; settings: Homo sapiens
A-549(ATCC) = assay: as above; type: cell-based; settings: Homo sapiens, A549
Excerpt: (§1) Isolated pure compounds were sent to the National Institute of Health, National Cancer Institute, Bethesda, Md., for testing in human cancer cell line panels including leukemia, non-small cell lung cancer, small cell lung cancer, CNS cancer, melanoma, ovarian cancer and renal cancer.
(§2) To test further the selective specificity of antitumor activities, bullatacin was sent to the NIH, NCI at Bethesda, Md., for their human tumor cell line panel tests including leukemia, non-small cell lung cancer, small cell lung cancer, colon cancer, breast cancer, CNS cancer melanoma, ovarian cancer, and renal cancer.

LOX = assay: NCI in vitro cytotoxicity, melanoma; type: cell-based; settings: Homo sapiens
Excerpt: as §1, §2

SN12-K1 = assay: NCI in vitro cytotoxicity, renal cancer; type: cell-based; settings: Homo sapiens, SN12K1
HL-60 TB = assay: NCI in vitro cytotoxicity, leukemia; type: cell-based; settings: Homo sapiens
CCRF-CEM = assay: NCI in vitro cytotoxicity, leukemia; type: cell-based; settings: Homo sapiens
RPMI-7951 = assay: NCI in vitro cytotoxicity, melanoma; type: cell-based; settings: Homo sapiens
SNB-75 = assay: NCI in vitro cytotoxicity, CNS cancer; type: cell-based; settings: Homo sapiens
P388/ADR = assay: NCI in vitro cytotoxicity, leukemia; type: cell-based; settings: Mus musculus
protein tyrosine kinase = protein tyrosine kinase test; type: biochemical
HT29 = assay: NCI in vitro cytotoxicity, colon cancer; type: cell-based; settings: Homo sapiens, HT-29
OVCAR-8 = assay: NCI in vitro cytotoxicity, ovarian cancer; type: cell-based; settings: Homo sapiens
DLD-1 = assay: NCI in vitro cytotoxicity, colon cancer; type: cell-based; settings: Homo sapiens
H322 = assay: NCI in vitro cytotoxicity, non-small cell lung cancer; type: cell-based; settings: Homo sapiens
OVCAR-5 = assay: NCI in vitro cytotoxicity, ovarian cancer; type: cell-based; settings: Homo sapiens
HCC-2998 = assay: NCI in vitro cytotoxicity, colon cancer; type: cell-based; settings: Homo sapiens
UO-31 = assay: NCI in vitro cytotoxicity, renal cancer; type: cell-based; settings: Homo sapiens
OVCAR-3 = assay: NCI in vitro cytotoxicity, ovarian cancer; type: cell-based; settings: Homo sapiens
[2] = system: brine shrimp (Artemia salina Leach); assay: whole plant or invertebrate; type: in vivo; settings: 24 hrs, read-out: BST LC50
Method: The extracts, fractions, and isolated compounds were routinely evaluated for lethality to brine shrimp larvae (BST). The LC50 of brine shrimp (Artemia salina Leach) was determined by substantially the same method described by Meyer et al. [Planta Med., 45: 31-34 (1982)]. The test sample was dissolved in solvent and added to 2-dram vials in an amount to provide 1000, 100, 10, 1, etc. p.p.m. of material in the final brine preparation, assuming complete miscibility in the brine. The vials were dried in vacuo, and artificial sea water, prepared from a commercial salt mixture, was added. Ten brine shrimp larva (nauplii), 48-72 hrs. old, were introduced to the vial, and the volume was made up to 5 ml. with the sea water. After 24 hrs., the percent mortality was computed. Subsequently, LC50 values and 95% confidence limits were calculated by a Finney probit analysis to permit comparison of potencies of extracts and fractions.
Anticancer activity is a potential use even for the crude extract. The bioassay results for the lethality of brine shrimp (BST), the inhibition of crown gall tumors on potato discs (PD), the reversal in morphology of db-cAMP induced AC glioma cells from that of mature, differentiated astrocytes to that of immature AC glioma cells (mouse brain cells) (9ASK), the dose that inhibits cell growth to one-half that of untreated poorly differentiated human epidermic carcinoma (9KB), the dose that inhibits cell growth to one-half that of a methylcholanthrene-induced lymphoid neoplasm in a DBA/2 mouse (9PS), and the percent displacement in a protein kinase C test for initial extract fractions are shown in Table 1. Obviously, the bioactivity is concentrated in F005.

With `CCCCCCCCCCC(O)C1CCC(C2CCC(C(O)CCCCCCCCCCC(O)CC3=CC(C)OC3=O)O2)O1` (centres unmarked) [Bullatacin] the IC50 (LOVO) was 0.915 ng/mL (≈ 0.00147 µM), the IC90 (LOVO) was 4.69 µg/mL (≈ 7.53 µM) and the IC50 (P388) was over 0.0924 µg/mL. It also gave an IC90 (P388) of over 0.0924 µg/mL, an IC50 (MCF7) of over 0.0924 µg/mL and an IC90 (MCF7) of over 0.0924 µg/mL. The IC50 (HOP-62) was under 0.926 ng/mL, the IC90 (HOP-62) was 5.13 µg/mL (≈ 8.24 µM) and the “tumor types most sensitive in panel” value [1] was “best active for certain CNS cancers, non-small cell lung cancers, leukemias, and ovarian cancers”. For the same molecule, the IC50 (SK-MES-1) was over 0.0924 µg/mL, the IC90 (SK-MES-1) was over 0.0924 µg/mL and the IC50 (H23) was 2.38 µg/mL (≈ 3.82 µM). For the same molecule, the IC90 (H23) was 9.21 µg/mL (≈ 14.8 µM), the IC90 (A-549(ATCC)) was over 0.0924 µg/mL and the IC50 (LOX) was under 0.926 ng/mL. For the same molecule, the IC90 (LOX) was 3.76 µg/mL (≈ 6.04 µM), the IC50 (SN12-K1) was 0.0224 ng/mL (≈ 3.6e-05 µM) and the IC90 (SN12-K1) was 0.287 ng/mL (≈ 0.000461 µM). The IC50 (HL-60 TB) was under 0.926 ng/mL, the IC50 (CCRF-CEM) was 0.0894 ng/mL (≈ 0.000144 µM) and the IC90 (CCRF-CEM) was 0.0694 µg/mL (≈ 0.111 µM). For the same molecule, the IC50 (RPMI-7951) was 2.73 µg/mL (≈ 4.38 µM), the IC90 (RPMI-7951) was 7.71 µg/mL (≈ 12.4 µM) and the IC50 (SNB-75) was 3.35 µg/mL (≈ 5.38 µM). The IC90 (SNB-75) was over 9.26 µg/mL, the IC50 (P388/ADR) was under 0.926 ng/mL and the IC90 (P388/ADR) was 2.56 µg/mL (≈ 4.11 µM). For the same molecule, the “result in the protein tyrosine kinase test” value (protein tyrosine kinase) was “negative result”, the IC50 (HT29) was 3.84 ng/mL (≈ 0.00616 µM) and the IC90 (HT29) was over 0.0924 µg/mL. For the same molecule, the IC50 (OVCAR-8) was 2.57 µg/mL (≈ 4.13 µM), the IC90 (OVCAR-8) was 7.65 µg/mL (≈ 12.3 µM) and the IC50 (DLD-1) was 2.76 µg/mL (≈ 4.43 µM). The IC90 (DLD-1) was 8.62 µg/mL (≈ 13.8 µM), the IC50 (H322) was under 0.926 ng/mL and the IC90 (H322) was over 9.26 µg/mL. The IC50 (OVCAR-5) was 8.8 µg/mL (≈ 14.1 µM), the IC90 (OVCAR-5) was over 9.26 µg/mL and the IC50 (HCC-2998) was 4.05 µg/mL (≈ 6.5 µM). The IC50 (UO-31) was 1.94 µg/mL (≈ 3.11 µM), the IC90 (UO-31) was over 9.26 µg/mL and the IC50 (OVCAR-3) was over 0.0924 µg/mL. It also gave an IC90 (OVCAR-3) of over 0.0924 µg/mL and an LC50 [2] of 1.59 ng/mL (≈ 0.00255 µM).
